Results on 17 compounds are retold here after PMC7460603 (International Journal of Molecular Sciences, 2020).

In series [1] the target is T1, electric eel acetylcholinesterase (eeAChE) (Electrophorus electricus, UniProt O42275). Nature of the series: biochemical. The class given is biochemical. Further details: purchased Sigma, St. Louis, MO, USA. Particulars: for Ki: three substrate concentrations (0.125, 0.25, 0.5 mM). Here is the method: (§1) Cholinesterase activities were measured by the Ellman method adapted for microtiter plates, as described in Ristovski et al.. Stock solutions of the prepared ruthenium compounds (1 mg/mL) or neostigmine bromide (Sigma-Aldrich, St. Louis, MO, USA) as a positive control were prepared in 100% ethanol and progressively diluted in 100 mM potassium phosphate buffer (pH 7.4) to a final volume of 50 µL. Then, 1 mM acetylthiocholine chloride and 0.5 mM 5,5′-dithiobis-2-nitrobenzoic acid were dissolved in the same buffer and added to the wells of the microtiter plates to the final volume of 150 μL. Electric eel acetylcholinesterase (eeAChE) or horse serum BChE (hsBuChE) (both Sigma, St. Louis, MO, USA) were dissolved in the same buffer to 0.0075 U/mL. Fifty μL of each of the cholinesterases was added to start the reactions, which were followed spectrophotometrically at 405 nm and 25 °C for 5 min using a kinetic microplate reader (Dynex Technologies, Chantilly, VA, USA). Blank reactions without the inhibitors were run in the presence of the appropriate dilution of ethanol. Every measurement was repeated at least three times. For determination of the inhibitory constants, the kinetics were monitored using three different final substrate concentrations (0.125, 0.25, 0.5 mM).

Series [2] concerns the target T2, horse serum butyrylcholinesterase (hsBuChE) (Equus caballus, UniProt P81908). Nature of the series: biochemical. The class given is biochemical. Further details: purchased Sigma, St. Louis, MO, USA; host or cells: horse serum. Particulars: for Ki: three substrate concentrations (0.125, 0.25, 0.5 mM). On the procedure:
as §1

The conditions of series [3]: cited from earlier work.
The test system of series [4] is glutathione-S-transferase. Particulars: cited from earlier work.
Series [5] deals with HUVEC cells. Particulars: non-cancer cells; cited from earlier work.
The test system of series [6] is NHEK-1 cells. As to conditions: non-cancer cells; cited from earlier work.
Series [7] deals with neuromuscular transition. As to conditions: at pharmaceutically relevant concentrations; cited from earlier work.
Series [8] relates to human serum albumin. Particulars: cited from earlier work.
Series [9] deals with immunoglobulins G. As to conditions: human serum; cited from earlier work.
Series [10] deals with T1, electric eel acetylcholinesterase (eeAChE). Particulars: read-out: eeAChE IC50; previously reported; cited from earlier work.
The target in series [11] is T2, horse serum butyrylcholinesterase (hsBuChE). As to conditions: read-out: hsBuChE IC50; previously reported; cited from earlier work.
The subject of series [12] is human AChE (hAChE). Particulars: read-out: hAChE IC50; previously reported; cited from earlier work.
Series [13] in a line: 1H NMR stability in aqueous media. Here is the method: All assays were carried out immediately after the solution preparation.
For series [14] the following is noted: phosphate buffer solution, cultural media RPMI and FP-RPMI, plasma; cited from earlier work.
Series [15] is described as follows: ESI-MS stability in solution. As to conditions: positive ion mode, direct infusion; immediately before measurement and after three days.
Setting [16] is: concentration inducing 50% inhibition of enzyme activity, mean ± SEM of three independent measurements, / = no activity, read-out: eeAChE IC50.
[17] abbreviates: concentration inducing 50% inhibition of enzyme activity, mean ± SEM of three independent measurements, / = no activity, read-out: hsBuChE IC50.
[18] abbreviates: read-out: eeAChE IC50, concentration inducing 50% inhibition of enzyme activity, mean ± SEM of three independent measurements, / = no activity.
The mark [19] stands for this setting: read-out: hsBuChE IC50, concentration inducing 50% inhibition of enzyme activity, mean ± SEM of three independent measurements, / = no activity.

Read-outs that look alike come from different tables or passages of the source.

T2 sequence (P81908 whole entry): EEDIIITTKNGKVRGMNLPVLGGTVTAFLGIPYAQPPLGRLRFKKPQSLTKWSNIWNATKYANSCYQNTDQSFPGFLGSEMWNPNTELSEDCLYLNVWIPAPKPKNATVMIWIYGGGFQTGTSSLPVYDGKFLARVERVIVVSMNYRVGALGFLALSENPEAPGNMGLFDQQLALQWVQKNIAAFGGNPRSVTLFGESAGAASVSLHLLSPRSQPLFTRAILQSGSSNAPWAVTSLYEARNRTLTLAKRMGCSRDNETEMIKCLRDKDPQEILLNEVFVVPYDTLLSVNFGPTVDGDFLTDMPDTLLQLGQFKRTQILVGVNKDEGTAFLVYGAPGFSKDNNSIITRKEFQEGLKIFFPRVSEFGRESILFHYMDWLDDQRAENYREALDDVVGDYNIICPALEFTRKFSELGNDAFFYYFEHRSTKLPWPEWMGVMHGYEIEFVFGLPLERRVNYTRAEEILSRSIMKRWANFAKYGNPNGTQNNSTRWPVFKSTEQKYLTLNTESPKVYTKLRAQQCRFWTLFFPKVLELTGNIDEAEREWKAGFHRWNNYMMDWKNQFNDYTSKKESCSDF
T1 sequence (O42275 24-633): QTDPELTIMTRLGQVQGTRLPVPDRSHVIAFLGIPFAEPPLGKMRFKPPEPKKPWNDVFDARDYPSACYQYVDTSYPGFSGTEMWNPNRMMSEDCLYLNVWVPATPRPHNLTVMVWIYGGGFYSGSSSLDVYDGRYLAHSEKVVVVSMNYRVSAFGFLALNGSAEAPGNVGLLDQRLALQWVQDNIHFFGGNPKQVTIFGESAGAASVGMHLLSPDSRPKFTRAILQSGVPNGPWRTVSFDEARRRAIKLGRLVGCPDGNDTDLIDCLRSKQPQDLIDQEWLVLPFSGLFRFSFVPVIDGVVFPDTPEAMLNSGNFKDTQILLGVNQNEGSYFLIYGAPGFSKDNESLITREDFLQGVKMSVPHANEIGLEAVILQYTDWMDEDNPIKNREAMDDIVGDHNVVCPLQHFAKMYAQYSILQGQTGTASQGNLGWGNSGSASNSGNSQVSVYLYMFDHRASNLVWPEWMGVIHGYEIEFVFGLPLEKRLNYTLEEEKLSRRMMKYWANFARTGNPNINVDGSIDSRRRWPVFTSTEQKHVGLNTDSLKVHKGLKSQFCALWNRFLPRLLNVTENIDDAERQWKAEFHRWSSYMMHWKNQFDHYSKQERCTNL

As usually defined, the IC50 is the concentration at which inhibition is half-maximal. One may read the Ki as the dissociation constant of the complex between target and ligand, obtained from inhibition or displacement. Turning to “[(η^6-p-Cymene)Ru(2-hydroxyisoquinoline-3-(2H)-thionato)Cl] [Compound 1h]”, the values for the IC50 in [1] (setting [16]) and in series [2] (setting [17]) were 14.3 ± 2 µM and 0.7 ± 0.1 µM, respectively. In addition, the inhibitory constant (Ki) was 20.1 µM in series [1] and 0.2 µM in [2].

On to `Cc1ccc(C(C)C)cc1.Cc1ccn([O-])c(=S)c1.[Cl-].[Ru+2]` [Compound 1c], for which the IC50 in series [1] (setting [16]) amounted to 9.5 ± 1.1 µM; in series [2] (setting [17]), 2.7 ± 0.8 µM. Also, the inhibition constant Ki is 8.5 µM in series [1] and 0.9 µM in series [2].

As for `CN(C)C(=O)Oc1cccc([N+](C)(C)C)c1` [Neostigmine bromide, reference compound], the IC50 was found to be 4.3 ± 0.8 µM in series [1] and 37.3 ± 4.2 µM in series [2].

Regarding `On1cc2ccccc2cc1=S` [h, 2-Hydroxyisoquinoline-3-(2H)-thione], the “activity against eeAChE (in words)” value in series [1] is recorded as “poorly active”. Further, the values for the concentration for half-maximal inhibition (IC50) in [1] (setting [16]) and in series [2] (setting [17]) were greater than 100 µM and 53 µM, respectively. For the same compound, the “activity against hsBuChE (in words)” value in series [2] is reported as “poorly active”.

In the case of `Cc1ccc(=S)n(O)c1` [d], the 50% inhibitory concentration (IC50) in series [1] (setting [18]) and in [2] (setting [19]) was greater than 100 µM in each case.

On to `Cc1cccc(=S)n1O` [e], for which the half-maximal inhibitory concentration (IC50) in [1] (setting [18]) and in [2] was greater than 100 µM in each case.

Turning to `Cc1ccn(O)c(=S)c1` [c], the 50% inhibitory concentration (IC50) in [1] (read-out: eeAChE IC50) and in series [2] (read-out: hsBuChE IC50) was greater than 100 µM in each case.

For the compound `Cc1ccc(=S)n([O-])c1.Cc1ccc(C(C)C)cc1.[Cl-].[Ru+2]` [Compound 1d], the results for the IC50 in series [1] (setting [16]) and in [2] (setting [17]) were 6.6 ± 0.5 µM and 1.9 ± 0.4 µM, respectively. Also, the inhibition constant Ki in series [1] turned out to be 9.7 µM; in [2] it was 0.4 µM.

Turning to “[(η^6-p-Cymene)Ru(1-hydroxyquinoline-2-(1H)-thionato)Cl] [Compound 1g]”, the IC50 in series [1] (setting [16]) came to 4.9 ± 0.1 µM; in series [2] (setting [17]) it was 0.2 ± 0.05 µM. For the same compound, the Ki in [1] amounted to 5.6 µM; in [2], 0.2 µM.

As to `On1ccc2ccccc2c1=S` [f, 2-Hydroxyisoquinoline-1-(2H)-thione], the IC50 in [1] (setting [18]) and in series [2] (setting [19]) was greater than 100 µM each time.

In the case of `Cc1ccc(C(C)C)cc1.[Cl][Ru+].[O-]n1ccccc1=S` [Compound 1a], the “stability in D2O solution containing NaCl” value in [3] is “confirmed the stability”. For the same compound, the “stability in DMSO-d6/D2O (1H NMR)” value in [3] is on record as “stable”. Also, in series [4], the “inhibition of glutathione-S-transferase” value was “inhibited”. In addition, the “cytotoxicity against HUVEC cells” value in [5] is “no cytotoxicity”. The “cytotoxicity against NHEK-1 cells” value in [6] is on record as “no cytotoxicity”. The “physiological response on the neuromuscular transition” value in [7] is reported as “did not express any unwanted physiological response”. In addition, the “fraction interacting with human serum albumin” value in series [8] is reported as 70%. For the same compound, the fraction remaining unbound in [8] is reported as 25%. In series [9], the “fraction interacting with immunoglobulins G” value is listed as 5%. Also, the half-maximal inhibitory concentration (IC50) in series [10] was 5.01 µM; in series [11] it was 7.52 µM; in [12], 25.1 µM; in series [1] (setting [16]) it was 7.8 ± 0.8 µM; in [2] (setting [17]), 2.3 ± 0.1 µM. The inhibition constant (Ki) was found to be 15.1 µM in [1] and 0.5 µM in series [2].

Consider `Cc1ccc(C(C)C)cc1.[Cl][Ru+].[O-]n1ccc2ccccc2c1=S` [Compound 1f, [(η^6-p-Cymene)Ru(2-hydroxyisoquinoline-1-(2H)-thionato)Cl]], for which the IC50 in series [1] (setting [16]) was found to be 8.1 ± 0.5 µM; in series [2] (setting [17]), 1.3 ± 0.1 µM. The Ki was 12.3 µM in [1] and 0.4 µM in series [2].

Regarding `On1ccccc1=S` [a, 1-hydroxypyridine-2(1H)-thione], the half-maximal inhibitory concentration (IC50) in series [1] (setting [18]) and in [2] (setting [19]) was greater than 100 µM throughout.

`On1c(=S)ccc2ccccc21` [g, 1-Hydroxyquinoline-2-(1H)-thione]: the concentration for half-maximal inhibition (IC50) in [1] (setting [16]) and in series [2] (setting [17]) was greater than 100 µM in each case.

Turning to `Cc1ccc(C(C)C)cc1.Cc1cccc(=S)n1[O-].[Cl-].[Ru+2]` [Compound 1e], in [13] (6.25% EtOH-d6/D2O, 80.2 mM K2HPO4 and 19.8 mM KH2PO4, immediately and after one hour), the “stability under enzymatic assay conditions (1H NMR)” value is “remain stable”. Moreover, the “stability in D2O containing 140 mM NaCl (1H NMR)” value in [13] (after one day) is “negligible changes”. Besides, the “stability in D2O (1H NMR)” value in series [13] (immediately and after three days) is recorded as “remain the main present species”. The figures for the IC50 in series [1] (setting [16]) and in series [2] (setting [17]) were 5.1 ± 0.4 µM and 0.7 ± 0.1 µM, respectively. For the same compound, the Ki in [1] amounted to 4.9 µM; in [2] it was 3.4 µM.

As for `Cc1cccn(O)c1=S` [b], the IC50 in series [1] (setting [18]) and in series [2] (setting [19]) was greater than 100 µM each time.

In the case of `Cc1ccc(C(C)C)cc1.Cc1cccn([O-])c1=S.[Cl-].[Ru+2]` [Compound 1b], the “stability in aqueous media (UV-Vis)” value in [14] is on record as “stable”. In series [15], the “stability in aqueous solution (ESI-MS, [M − Cl]+ ion)” value is listed as “same spectrum”. Further, the 50% inhibitory concentration (IC50) in series [1] (setting [16]) turned out to be 10.5 ± 0.7 µM; in [2] (setting [17]), 1.2 ± 0.02 µM. Besides, the Ki was found to be 9.7 µM in series [1] and 0.4 µM in series [2].
